Test system: cells
Test: MTT assay, cytotoxicity / biocompatibility (FIG. 12)
Type: cell-based
Details: cells plated on dried polymer layer; Q-PEI-PNIPAAm 20% conjugation at 1, 3 and 5%; negative control growth medium, positive control 5% DMSO
Experimental: FIG. 12 illustrates Cytotoxicity Tests of Q-PEI-PNIPAAm. An MTT assay was conducted to assess the biocompatibility of Q-PEI-PNIPAAm. Several methods were used to conduct this test. Previously, the Q-PEI-PNIPAAm polymer had been placed on top of the cells mixed with the media; however, due to the gelling nature of the sample the polymer was not in contact with the cells for long period of time. Due to this, the methodology was modified and the cells were plated on top of the polymer and then trypsinized and re-plated before conducting the test; however, trypsinizing, centrifuging and re-plating cells can lead to higher variability in number of cells per well and since the cells were not left to attached on the plates for long enough the results may be inaccurate. Finally the polymer was dissolved in alcohol, left to evaporate and then the cells were plated on top. Since the MTT measures absorbance, blanks were required for each sample. However, the layer of polymer on the plate needed to be very thin so the polymer concentration tested was 1, 3 and 5%. […] Chlorhexidine 2%, a common skin preparation solution was tested as a control.
A statistically significant difference was observed between the experimental samples, negative and positive control (cells cultured with 5% DMSO) (***indicates […], and **indicates p<0.05.).

## [H]/N=C(\N/C(=N/[H])NCCCCCCNC(=N)NC(=N)Nc1ccc(Cl)cc1)Nc1ccc(Cl)cc1 [chlorhexidine]
  Metabolic activity of cells (MTT absorbance) versus controls: the same difference was obtained

— patent US9999224B2, “Antimicrobial reverse thermal gel and methods of forming and using same” (The Regents of the University of Colorado, a body corporate, priority 2014, dated 2018)
